Reference: PubChem BioAssay (NCI)
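Protocol summary: plate cells (96-well), add compound at 5 concentrations, incubate 48 h, interpolate endpoints linearly. The concentration for 50% growth inhibition is given as GI50. The concentration for full growth arrest is given as TGI.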

Legend:
Test in all cases: NCI anticancer screen, dose series, 48 h
[1] = test system: SN12C renal
[2] = test system: HL-60(TB) leukemia
[3] = test system: KM12 colon
[4] = test system: UACC-257 melanoma
[5] = test system: SK-MEL-28 melanoma
[6] = test system: MDA-MB-231 breast
[7] = test system: SNB-19 CNS
[8] = test system: SK-OV-3 ovarian
[9] = test system: HCT-15 colon
[10] = test system: COLO 205 colon
[11] = test system: HOP-62 NSCLC
[12] = test system: SF-268 CNS
[13] = test system: OVCAR-8 ovarian
[14] = test system: UO-31 renal
[15] = test system: HS 578T breast
[16] = test system: EKVX NSCLC
[17] = test system: RXF 393 renal
[18] = test system: SW-620 colon
[19] = test system: 786-0 renal
[20] = test system: MOLT-4 leukemia
[21] = test system: M14 melanoma
[22] = test system: IGROV1 ovarian
[23] = test system: T-47D breast
[24] = test system: A498 renal
[25] = test system: SF-539 CNS
[26] = test system: SK-MEL-2 melanoma
[27] = test system: BT-549 breast
[28] = test system: SF-295 CNS
[29] = test system: MCF7 breast
[30] = test system: LOX IMVI melanoma
[31] = test system: K-562 leukemia
[32] = test system: U251 CNS
[33] = test system: HCC-2998 colon
[34] = test system: TK-10 renal
[35] = test system: NCI/ADR-RES ovarian
[36] = test system: OVCAR-4 ovarian
[37] = test system: SK-MEL-5 melanoma
[38] = test system: HCT-116 colon
[39] = test system: NCI-H460 lung
[40] = test system: DU-145 prostate
[41] = test system: OVCAR-3 ovarian
[42] = test system: CAKI-1 renal
[43] = test system: ACHN renal
[44] = test system: OVCAR-5 ovarian
[45] = test system: MDA-MB-435
[46] = test system: A549 NSCLC
[47] = test system: NCI-H23 lung
[48] = test system: CCRF-CEM leukemia
[49] = test system: PC-3 prostate
[50] = test system: NCI-H522 lung
[51] = test system: UACC-62 melanoma
[52] = test system: SNB-75 CNS
[53] = test system: RPMI-8226 leukemia
[54] = test system: HT29 colon
[55] = test system: HOP-92 NSCLC
[56] = test system: NCI-H226 lung

## Cc1ccc2c(c1)n([O-])c(C(F)(F)F)c(C(=O)c1ccco1)[n+]2=O
[1]
  GI50: 0.833 µM
  TGI: 2.5 µM
[2]
  GI50: 1.09 µM
  TGI: 21.8 µM
[3]
  GI50: 0.667 µM
  TGI: 2.49 µM
[4]
  GI50: 0.924 µM
  TGI: 3.12 µM
[5]
  GI50: 4.16 µM
  TGI: 23.6 µM
[6]
  GI50: 0.929 µM
  TGI: 2.65 µM
[7]
  GI50: 1.47 µM
  TGI: 6.82 µM
[8]
  GI50: 1.59 µM
  TGI: 7.39 µM
[9]
  GI50: 0.562 µM
  TGI: 7.62 µM
[10]
  GI50: 0.816 µM
  TGI: 2.06 µM
[11]
  GI50: 0.996 µM
  TGI: 3.85 µM
[12]
  GI50: 0.42 µM
  TGI: 2.48 µM
[13]
  GI50: 0.684 µM
  TGI: 2.64 µM
[14]
  GI50: 0.319 µM
  TGI: 1.81 µM
[15]
  GI50: 1.2 µM
  TGI: 7.73 µM
[16]
  GI50: 0.719 µM
  TGI: 2.88 µM
[17]
  GI50: 0.622 µM
  TGI: 2.91 µM
[18]
  GI50: 0.966 µM
  TGI: 8.15 µM
[19]
  GI50: 1.22 µM
  TGI: 6.59 µM
[20]
  GI50: 14.6 µM
  TGI: 50 µM
[21]
  GI50: 1.3 µM
  TGI: 6.55 µM
[22]
  GI50: 0.205 µM
  TGI: 9 µM
[23]
  GI50: 0.472 µM
  TGI: 4.18 µM
[24]
  GI50: 1.21 µM
  TGI: 3.21 µM
[25]
  GI50: 0.918 µM
  TGI: 2.67 µM
[26]
  GI50: 4.4 µM
  TGI: 34.7 µM
[27]
  GI50: 0.627 µM
  TGI: 4.21 µM
[28]
  GI50: 0.457 µM
  TGI: 1.97 µM
[29]
  GI50: 0.762 µM
  TGI: 4.9 µM
[30]
  GI50: 0.176 µM
  TGI: 0.93 µM
[31]
  GI50: 1.1 µM
  TGI: 34.5 µM
[32]
  GI50: 0.632 µM
  TGI: 5.15 µM
[33]
  GI50: 0.716 µM
  TGI: 1.67 µM
[34]
  GI50: 1.94 µM
  TGI: 8.74 µM
[35]
  GI50: 0.74 µM
  TGI: 3.55 µM
[36]
  GI50: 0.627 µM
  TGI: 1.89 µM
[37]
  GI50: 0.556 µM
  TGI: 1.3 µM
[38]
  GI50: 0.994 µM
  TGI: 12.7 µM
[39]
  GI50: 0.262 µM
  TGI: 1.52 µM
[40]
  GI50: 0.564 µM
  TGI: 1.33 µM
[41]
  GI50: 0.573 µM
  TGI: 1.75 µM
[42]
  GI50: 0.0845 µM
  TGI: 0.448 µM
[43]
  GI50: 0.217 µM
  TGI: 1 µM
[44]
  GI50: 1.72 µM
  TGI: 9.03 µM
[45]
  GI50: 0.744 µM
  TGI: 2.65 µM
[46]
  GI50: 0.965 µM
  TGI: 3.35 µM
[47]
  GI50: 0.433 µM
  TGI: 1.52 µM
[48]
  GI50: 0.0743 µM
  TGI: 0.859 µM
[49]
  GI50: 0.306 µM
  TGI: 4.82 µM
[50]
  GI50: 1.42 µM
  TGI: 12.5 µM
[51]
  GI50: 0.723 µM
  TGI: 1.61 µM
[52]
  GI50: 1.4 µM
  TGI: 6.07 µM
[53]
  GI50: 0.357 µM
  TGI: 2.69 µM
[54]
  GI50: 2.07 µM
  TGI: 20.7 µM
[55]
  GI50: 0.0556 µM
  TGI: 0.445 µM
[56]
  GI50: 0.755 µM
  TGI: 2.09 µM
